This note sets out measurements from patent EP4778522A1, “USE OF PYRROLOPYRIMIDINE COMPOUND AND COMPOSITION THEREOF” (Guangzhou Joyo Pharmatech Co., Ltd., priority 2023, dated 2025).

Test [1] concerns FITC-induced mouse atopic dermatitis model. The test is described as follows: FITC-induced mouse atopic dermatitis model: histopathological scoring of ears. In kind it is in vivo, Balb/c mice. The settings on record: pathological score (0-4), right ear, day 13, 20 mg/dose topical twice a day. The source says: On day 13, all the experimental animals were euthanized by CO2 and cervical dislocation, and then the right ears were collected and fixed in 10% formalin for histopathological analysis.
After the ear tissues were embedded with paraffin, each ear tissue was sliced into 3-5 µm sections. After HE staining, the sections were subjected to routine histopathological evaluation and ear tissue thickness measurement. Table 4 Histopathological scoring criteria

Test [2] has the same test system. Nature of the test: FITC-induced mouse atopic dermatitis model: change in ear thickness. In kind it is in vivo, Balb/c mice. The settings on record: 20 mg/dose topical twice a day; for Ear thickness Day 5 / Ear thickness Day 6 / Ear thickness Day 12 / Ear thickness Day 13 / ΔEar thickness Day 6-Day 5 / ΔEar thickness Day 13-Day 5: right ear; for Inhibitory rate% (Day 13): Δ ear thickness vs model group. The source says: • 1) Animals: female Balb/c mice, specific pathogen-free (SPF), aged 6-7 weeks at grouping, with 10 mice per group. The animals were provided by Shanghai Jihui Laboratory Animal Care Co., Ltd. • 2) Reagents, positive drugs and test drugs
FITC induction method: experimental animals were subjected to examination in an adaptation period and weight screening after examined to be qualified. The animals were randomly divided into 6 experimental groups according to the weight, including a normal group, a model group, a clobetasol propionate ointment group, a 0.5% Compound I group, a 1% Compound I group and a 2% Compound I group, with 10 mice in each group. On day 0 and day 1, after all the experimental animals were administered for 2 hours, the animals were anesthetized with zoletil (25 mg/kg) and xylazine (5 mg/kg), and then subjected to sensitization operation at the abdomen (a sensitized part). The abdominal part of the experimental animal at about 3×4 cm was depilated before sensitization, and then 0.5% FITC (dissolved in dibutyl phthalate/acetone solution) was applied to the alopecic areas of the abdomens of the experimental animals in model group for sensitization. An equal volume of dibutyl phthalate/acetone was given to the alopecic areas of the abdomens of the experimental animals in the normal-blank gel group.
On day 5 and day 12, all the experimental animals were anesthetized with 1-4% isoflurane (all subsequent measurements on ear thickness were performed under anesthesia with isoflurane), and the thickness of the right-side ear margins of the experimental animals was measured as a baseline. On day 5 and day 12, 0.5% FITC was applied to both the inner and outer sides of the right ears of the experimental animals in model group for challenge treatment. An equal volume of dibutyl phthalate/acetone solution was given to the experimental animals in the normal-blank gel group.
On day 6 and day 13, 24 hours after each FITC challenge, the thickness of the right-side ear margins of all the experimental animals was measured. Ear swelling response was determined by the change in the ear thickness before and after FITC challenge measured with a digital display thickness gauge, the measurement positions were basically kept constant, and the mean change in the ear thickness (ΔT±S.E.M.) was recorded for each group.

Each structure is given as a SMILES string. Values joined by “and” are separate entries in the source; they are usually repeats but may differ in a detail not shown here. Equal values may be shown once. Marks after values point to notes of the source that are not given here.

For the molecule `CN(c1ncnc2[nH]ccc12)[C@@H]1CCc2cc(C#N)nn2C1` [compound I], the “Enlargement of follicular orifice” value in test [1] (1% gel) was 1.50 ± 0.17 and 1.50. Also, the “Enlargement of follicular orifice” value in test [1] (2% gel) is 1.30 ± 0.26 and 1.30. Moreover, in test [2] (0.5% gel), the “Ear thickness Day 5” value was 0.17 mm, the “Ear thickness Day 6” value was found to be 0.19 mm, the “Ear thickness Day 12” value is given as 0.18 mm and the “Ear thickness Day 13” value is on record as 0.19 mm. Also, in test [2] (0.5% gel), the “ΔEar thickness Day 6-Day 5” value is 0.0250 mm, the “ΔEar thickness Day 13-Day 5” value was determined as 0.0170 ± 0.0033 mm and the “Inhibitory rate% (Day 13)” value came out at 82.65%. In test [2] (0.5% gel, listed as compound 1), the “ΔEar thickness Day 13-Day 5” value was determined as 0.0170 mm and the “Inhibitory rate% (Day 13)” value is 82.65%****. In test [2] (1% gel), the “Ear thickness Day 5” value was 0.17 mm, the “Ear thickness Day 6” value came out at 0.20 mm, the “Ear thickness Day 12” value came out at 0.18 mm and the “Ear thickness Day 13” value amounted to 0.19 mm. In addition, in test [2] (1% gel), the “ΔEar thickness Day 6-Day 5” value is 0.0280 mm; the “ΔEar thickness Day 13-Day 5” value is 0.0250 ± 0.0043 mm and 0.0250 mm. In addition, in test [2] (2% gel), the “Ear thickness Day 5” value is on record as 0.17 mm, the “Ear thickness Day 6” value came out at 0.20 mm, the “Ear thickness Day 12” value is 0.18 mm and the “Ear thickness Day 13” value came to 0.20 mm. Besides, in test [2] (2% gel), the “ΔEar thickness Day 6-Day 5” value is given as 0.0260 mm; the “ΔEar thickness Day 13-Day 5” value was 0.0250 ± 0.0017 mm and 0.0250 mm.
